From ChEMBL document CHEMBL1201862, “PubChem BioAssay data set” (2004)
Calls of active or inactive are those of the source.

Test system: not listed separately
Test: loss of viability in HepG2 cells – cell-based, CellTiter-Glo, cherry-picked, cytotoxicity control for Shn3 inhibitor project, dose response (AID 624134)
Assay type: functional

Row | SMILES | AC50
1 | OC(c1cc(-c2cccc(Cl)c2)nc2ccccc12)C1CCCCN1 (stereo not given) | 16 µM (active)
2 | O=C(CSc1n[nH]c(-c2ccccn2)n1)Nc1cccc(Cl)c1 | 3.81 µM (active)
3 | COc1ccc(CNCCC(c2ccc(OC(C)C)cc2)c2ccccc2OC)cc1OC (stereo not given) | 19.1 µM (active)
4 | COc1ccc(NC(=O)C2Cc3c(-c4cccc(C(C)=O)c4)ccnc3O2)cc1OC (stereo not given) | 7.75 µM (active)
5 | Cc1cc(NC(=O)CCN2CCN(C/C=C/c3ccccc3)CC2)ccc1Br | > 70 µM (inactive)

Target: Cytochrome P450 3A4 (Homo sapiens, UniProt P08684);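 further: CYP3A4 tested as one member of a cytochrome P450 panel screen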
Sequence (P08684 whole entry): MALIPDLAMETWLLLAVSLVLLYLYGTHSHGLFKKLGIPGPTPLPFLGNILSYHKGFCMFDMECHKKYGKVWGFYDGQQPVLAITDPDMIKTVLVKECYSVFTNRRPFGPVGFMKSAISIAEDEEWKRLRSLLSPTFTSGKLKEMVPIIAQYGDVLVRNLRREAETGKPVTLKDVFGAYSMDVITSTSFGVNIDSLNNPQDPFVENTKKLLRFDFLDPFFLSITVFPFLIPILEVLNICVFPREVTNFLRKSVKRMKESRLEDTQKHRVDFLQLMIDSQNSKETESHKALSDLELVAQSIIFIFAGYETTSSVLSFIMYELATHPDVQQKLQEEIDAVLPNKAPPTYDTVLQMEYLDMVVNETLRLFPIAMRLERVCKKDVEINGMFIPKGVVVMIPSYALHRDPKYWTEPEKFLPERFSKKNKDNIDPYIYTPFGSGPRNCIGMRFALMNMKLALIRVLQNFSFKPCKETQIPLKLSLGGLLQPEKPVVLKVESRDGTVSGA
Test: not given

Row | SMILES | AC50
6 | Cc1ccc(NC(=O)N/C=C/c2ccco2)cc1C | 12.6 µM (inconclusive)

Target: Paired box protein Pax-8 (Homo sapiens, UniProt Q06710)
Sequence (Q06710 whole entry): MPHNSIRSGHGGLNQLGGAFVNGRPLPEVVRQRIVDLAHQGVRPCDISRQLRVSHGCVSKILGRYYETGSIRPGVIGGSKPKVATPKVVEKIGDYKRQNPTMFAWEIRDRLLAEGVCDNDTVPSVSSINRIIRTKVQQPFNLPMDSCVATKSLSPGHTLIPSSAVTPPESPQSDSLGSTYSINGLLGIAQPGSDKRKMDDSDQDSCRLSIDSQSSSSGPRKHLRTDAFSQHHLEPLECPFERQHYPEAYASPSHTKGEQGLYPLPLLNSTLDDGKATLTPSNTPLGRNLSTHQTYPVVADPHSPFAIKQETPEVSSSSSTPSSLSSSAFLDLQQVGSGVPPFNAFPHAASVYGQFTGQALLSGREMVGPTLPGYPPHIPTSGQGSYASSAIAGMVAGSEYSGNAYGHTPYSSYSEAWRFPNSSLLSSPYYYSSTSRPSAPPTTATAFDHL
Test: PAX8 transcriptional activity inhibition in RMG-I – RMG-I cells, luciferase, cherry-pick, dose response (AID 687027);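 further: luciferase reporter driven by Pax8 target thyroperoxidase promoter measured by SteadyGlo luminescence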
Assay type: functional, cell-based

Row | SMILES | AC50
7 | Cc1nc(Nc2nc(CSc3nc4ccccc4[nH]3)cc(=O)[nH]2)nc2ccccc12 | 9.16 µM (active)
8 | C[C@@H]1CCCCO[C@@H](CN(C)Cc2ccc(Cl)c(Cl)c2)[C@H](C)CN([C@@H](C)CO)C(=O)c2cc(NS(=O)(=O)c3ccccc3)ccc2O1 | 13.4 µM (active)
9 | C[C@@H]1CN([C@H](C)CO)C(=O)c2cc(NC(=O)Nc3ccc(F)cc3)ccc2O[C@@H](C)CCCCO[C@H]1CN(C)Cc1ccc(Cl)c(Cl)c1 | 9.51 µM (active)
10 | O=C(NC1CC1)c1ccc2c(c1)C1C3CCC(C3)C1C(c1ccccc1)N2 (stereo not given) | 48.2 µM (active)

Target: T1, Protein RecA (Mycobacterium tuberculosis, UniProt P9WHJ3)
T1 sequence (P9WHJ3 whole entry): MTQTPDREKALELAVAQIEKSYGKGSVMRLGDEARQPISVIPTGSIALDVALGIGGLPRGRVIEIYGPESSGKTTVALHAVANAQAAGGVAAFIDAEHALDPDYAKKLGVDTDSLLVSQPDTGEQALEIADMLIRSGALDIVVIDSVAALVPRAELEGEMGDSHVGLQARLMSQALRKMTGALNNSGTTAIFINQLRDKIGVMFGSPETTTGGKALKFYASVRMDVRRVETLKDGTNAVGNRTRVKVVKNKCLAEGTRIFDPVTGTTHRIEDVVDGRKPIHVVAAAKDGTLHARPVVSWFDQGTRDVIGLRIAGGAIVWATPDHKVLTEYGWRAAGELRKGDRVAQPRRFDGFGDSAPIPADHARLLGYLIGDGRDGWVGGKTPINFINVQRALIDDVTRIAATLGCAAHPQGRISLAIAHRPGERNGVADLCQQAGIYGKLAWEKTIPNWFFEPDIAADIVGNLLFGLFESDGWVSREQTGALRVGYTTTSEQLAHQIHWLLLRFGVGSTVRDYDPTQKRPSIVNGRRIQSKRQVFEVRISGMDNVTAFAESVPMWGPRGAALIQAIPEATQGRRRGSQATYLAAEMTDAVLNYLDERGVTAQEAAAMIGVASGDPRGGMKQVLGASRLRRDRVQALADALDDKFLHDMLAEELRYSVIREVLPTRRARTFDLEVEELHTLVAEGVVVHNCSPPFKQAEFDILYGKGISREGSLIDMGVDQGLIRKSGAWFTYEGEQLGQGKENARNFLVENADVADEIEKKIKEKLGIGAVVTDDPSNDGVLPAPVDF
Test: Fluorescence Cell-Free Homogeneous Dose Retest to Identify Inhibitors of RecA-Intein Splicing Activity. [Related pubchem assays (depositor defined):AID2097, AID2223, AID489010, AID492950]
Assay type: functional

Row | SMILES | EC50
11 | O=c1[nH]c(CCl)nc2cc(-c3ccc(F)cc3)sc12 | 5.66 µM (active)

Target: T2, Replicative DNA helicase DnaB (Mycobacterium tuberculosis, UniProt P9WMR3)
T2 sequence (P9WMR3 whole entry): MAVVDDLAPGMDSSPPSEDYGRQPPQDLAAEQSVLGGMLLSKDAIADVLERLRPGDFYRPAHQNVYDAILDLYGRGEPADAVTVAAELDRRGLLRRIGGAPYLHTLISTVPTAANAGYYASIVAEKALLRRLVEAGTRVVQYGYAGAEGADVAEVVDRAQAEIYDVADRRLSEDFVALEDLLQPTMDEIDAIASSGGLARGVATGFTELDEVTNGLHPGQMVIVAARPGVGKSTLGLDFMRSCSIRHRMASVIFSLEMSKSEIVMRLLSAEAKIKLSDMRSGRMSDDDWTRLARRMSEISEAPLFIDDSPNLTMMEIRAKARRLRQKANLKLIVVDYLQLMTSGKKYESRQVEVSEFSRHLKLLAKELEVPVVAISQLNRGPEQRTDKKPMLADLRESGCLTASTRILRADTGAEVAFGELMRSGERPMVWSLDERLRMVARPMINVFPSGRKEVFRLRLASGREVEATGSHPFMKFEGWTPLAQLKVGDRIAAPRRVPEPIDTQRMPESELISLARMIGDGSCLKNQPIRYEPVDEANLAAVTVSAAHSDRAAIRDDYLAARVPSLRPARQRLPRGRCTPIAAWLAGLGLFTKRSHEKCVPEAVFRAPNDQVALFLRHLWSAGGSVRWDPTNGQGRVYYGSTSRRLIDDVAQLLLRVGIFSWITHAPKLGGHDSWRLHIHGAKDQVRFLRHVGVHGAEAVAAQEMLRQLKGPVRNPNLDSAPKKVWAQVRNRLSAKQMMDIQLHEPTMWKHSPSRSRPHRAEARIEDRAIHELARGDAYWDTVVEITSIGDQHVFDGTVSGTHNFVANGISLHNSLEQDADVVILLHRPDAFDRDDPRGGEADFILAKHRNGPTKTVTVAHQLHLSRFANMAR
Test: DnaB intein splicing inhibitors, dose response, biochemical, cell-free fluorescence (AID 449749)
Assay type: functional

Row | SMILES | AC50
12 | O=c1[nH]c(CCl)nc2cc(-c3ccc(F)cc3)sc12 | 11.7 µM (active)

Test system: not listed separately
Test: non-specific 3'UTR reporter inhibition in Clone20-Shn3RL – cell-based, Renilla luciferase, cherry-picked, counter-screen for Shn3 inhibitor project, dose response (AID 624133)
Assay type: functional

Row | SMILES | AC50
13 | OC(c1cc(-c2cccc(Cl)c2)nc2ccccc12)C1CCCCN1 (stereo not given) | 15.4 µM (active)
14 | O=C(CSc1n[nH]c(-c2ccccn2)n1)Nc1cccc(Cl)c1 | 2.9 µM (active)
15 | COc1ccc(CNCCC(c2ccc(OC(C)C)cc2)c2ccccc2OC)cc1OC (stereo not given) | 5.37 µM (active)
16 | COc1ccc(NC(=O)C2Cc3c(-c4cccc(C(C)=O)c4)ccnc3O2)cc1OC (stereo not given) | 4.68 µM (active)
17 | Cc1cc(NC(=O)CCN2CCN(C/C=C/c3ccccc3)CC2)ccc1Br | 15 µM (active)

Test system: not listed separately
Test: luciferase reporter signal suppression in cells – H4 neuroglioma cells, luminescence, dose response (AID 1990)
Assay type: functional, cell-based

Row | SMILES | EC50
18 | O=C(CSc1n[nH]c(-c2ccccn2)n1)Nc1cccc(Cl)c1 | 10.3 µM (active)

Target: Nonstructural protein 1 (Influenza A virus, UniProt Q194T2)
Sequence (Q194T2 whole entry): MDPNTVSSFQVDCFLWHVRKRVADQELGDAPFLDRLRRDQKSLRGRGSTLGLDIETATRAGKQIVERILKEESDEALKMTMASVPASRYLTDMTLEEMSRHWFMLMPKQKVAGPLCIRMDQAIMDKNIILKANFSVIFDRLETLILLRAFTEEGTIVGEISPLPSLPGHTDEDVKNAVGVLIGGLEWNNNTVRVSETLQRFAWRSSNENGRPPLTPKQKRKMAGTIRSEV
Test: not given
Assay type: functional, Influenza A virus (A/California/07/2009(H1N1))

Row | SMILES | IC50
19 | CN(C1=C(N2CCCCC2)C(=O)c2ccccc2C1=O)c1ccccc1 | 6.94 µM (active)
20 | O=C(CSc1n[nH]c(-c2ccccn2)n1)Nc1cccc(Cl)c1 | 8.24 µM (active)
21 | CN(C)c1ccc(C2CC(c3cccc(NS(C)(=O)=O)c3)=NN2C(=O)c2ccccc2)cc1 (stereo not given) | > 100 µM (active)
22 | O=[N+]([O-])c1ccc(Nc2ccc(N3CCOCC3)cc2)c([N+](=O)[O-])c1 | 71.6 µM (active)
23 | O=C1CSC(=S)N1N=Cc1ccccc1O | 1.75 µM (active)
24 | O=C1C(NS(=O)(=O)c2cccs2)=C(N2CCN(c3ccccc3)CC2)C(=O)c2ccccc21 | 21.6 µM (active)

Test system: not listed separately
Test: Luminescence Cell-Based Dose Confirmation HTS to Identify Inhibitors of Platelet Dense Granule Release. [Related pubchem assays: 1663 (Primary HTS), 1678 (Summary of Project)]
Assay type: functional

Row | SMILES | EC50
25 | CNc1nc2c(N)ncnc2n1[C@H]1O[C@@H](CO)[C@H](O)[C@@H]1O | 1.36 µM (active)
26 | COCc1nnc(NC(=O)CSCc2ccccc2)s1 | > 112 µM (not active)
27 | CCOC(=O)c1c(O)nc2ccccc2c1N1CCCCC1 | > 112 µM (not active)

Target: T3, Heat shock factor protein 1 (Mus musculus, UniProt P38532)
T3 sequence (P38532 whole entry): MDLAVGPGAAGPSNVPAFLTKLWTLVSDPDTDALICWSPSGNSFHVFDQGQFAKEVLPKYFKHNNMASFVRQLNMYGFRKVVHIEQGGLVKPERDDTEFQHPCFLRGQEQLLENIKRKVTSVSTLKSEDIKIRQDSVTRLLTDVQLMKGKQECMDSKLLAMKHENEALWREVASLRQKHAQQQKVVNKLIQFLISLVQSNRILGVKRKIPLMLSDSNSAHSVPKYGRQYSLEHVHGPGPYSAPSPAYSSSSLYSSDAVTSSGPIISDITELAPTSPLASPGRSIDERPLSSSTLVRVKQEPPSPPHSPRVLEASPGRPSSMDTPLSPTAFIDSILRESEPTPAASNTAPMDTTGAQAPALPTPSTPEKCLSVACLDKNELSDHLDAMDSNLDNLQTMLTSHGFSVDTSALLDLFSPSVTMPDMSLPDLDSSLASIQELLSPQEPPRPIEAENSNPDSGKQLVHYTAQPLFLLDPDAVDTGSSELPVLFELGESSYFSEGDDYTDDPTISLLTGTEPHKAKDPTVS
Test: decrease of HSF1-responsive luciferase luminescence – cell-based, NIH3T3, dose retest, confirmation (AID 2382);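 further: NIH3T3 fibroblasts with HSF1-driven luciferase reporter stressed by proteasome inhibitor MG132; luminescence from HSF1-driven luciferase expression after 8 hours of MG132 stress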
Assay type: functional

Row | SMILES | EC50
28 | CCOC(=O)c1c(O)nc2ccccc2c1N1CCCCC1 | > 195 µM (not active)

Target: Luciferin 4-monooxygenase (Photinus pyralis, UniProt P08659)
Sequence (P08659 whole entry): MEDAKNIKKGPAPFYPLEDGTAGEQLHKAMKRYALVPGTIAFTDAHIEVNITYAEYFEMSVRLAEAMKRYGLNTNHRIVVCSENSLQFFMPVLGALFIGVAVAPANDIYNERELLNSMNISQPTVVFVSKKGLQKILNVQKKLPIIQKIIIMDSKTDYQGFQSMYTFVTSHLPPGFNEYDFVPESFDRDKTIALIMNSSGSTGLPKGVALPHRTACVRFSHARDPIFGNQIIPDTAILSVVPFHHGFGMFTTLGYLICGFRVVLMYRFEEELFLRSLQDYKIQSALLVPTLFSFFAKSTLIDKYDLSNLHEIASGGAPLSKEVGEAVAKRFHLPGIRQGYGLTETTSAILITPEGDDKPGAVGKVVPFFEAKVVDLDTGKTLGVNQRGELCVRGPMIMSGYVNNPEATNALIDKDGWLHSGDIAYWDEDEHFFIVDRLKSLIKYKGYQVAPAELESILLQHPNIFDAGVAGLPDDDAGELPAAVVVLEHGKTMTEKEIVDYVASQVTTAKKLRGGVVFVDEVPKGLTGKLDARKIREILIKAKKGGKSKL
Test: inhibition of purified Photinus pyralis luciferase – biochemical, luminescence, dose response (AID 1891)

Row | SMILES | EC50
29 | CNc1nc2c(N)ncnc2n1[C@H]1O[C@@H](CO)[C@H](O)[C@@H]1O | > 112 µM (not active)
30 | COCc1nnc(NC(=O)CSCc2ccccc2)s1 | > 112 µM (not active)
31 | CCOC(=O)c1c(O)nc2ccccc2c1N1CCCCC1 | > 112 µM (not active)

Target: T3, Heat shock factor protein 1
Test: enhancement of HSF1-driven luciferase signal – cell-based, NIH3T3, luminescence, dose retest, confirmation (AID 435004);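 further: stress induced by proteasome inhibitor MG132 added 30 min after compound; luciferase reporter driven by HSF1 response element in NIH3T3 cells; actives raise luminescence as potentiators of the MG132 stress response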
Assay type: functional

Row | SMILES | EC50
32 | O=c1[nH]c(CCl)nc2cc(-c3ccc(F)cc3)sc12 | 32.1 µM (active)

Test system: not listed separately
Test: Luminescence Cell-Based Dose Response HTS to Identify Inhibitors of 5'UTR Stem-Loop Driven Prion Protein mRNA Translation in H4 Neuroglioblastoma Cells. [Related pubchem assays: 1827 (Project Summary), 1813 (Primary HTS)]
Assay type: functional

Row | SMILES | EC50
33 | O=C(CSc1n[nH]c(-c2ccccn2)n1)Nc1cccc(Cl)c1 | 8.65 µM (active)

Test system: not listed separately
Test: reduction of Shn3 3'UTR-driven luciferase in osteoblasts – cell-based, Clone20 osteoblasts, firefly luciferase, cherry-picked, dose response (AID 624132);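 further: firefly luciferase luminescence from reporter carrying the Shn3 3'UTR in osteoblasts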
Assay type: functional

Row | SMILES | AC50
34 | OC(c1cc(-c2cccc(Cl)c2)nc2ccccc12)C1CCCCN1 (stereo not given) | 10.8 µM (active)
35 | O=C(CSc1n[nH]c(-c2ccccn2)n1)Nc1cccc(Cl)c1 | 2.9 µM (active)
36 | COc1ccc(CNCCC(c2ccc(OC(C)C)cc2)c2ccccc2OC)cc1OC (stereo not given) | 4.35 µM (active)
37 | COc1ccc(NC(=O)C2Cc3c(-c4cccc(C(C)=O)c4)ccnc3O2)cc1OC (stereo not given) | 0.799 µM (active)
38 | Cc1cc(NC(=O)CCN2CCN(C/C=C/c3ccccc3)CC2)ccc1Br | 10.2 µM (active)

Test system: not listed separately
Test: alpha-synuclein stem-loop luciferase translation blockers – H4 neuroglioma cells, luminescence, confirmation (AID 1988)
Assay type: functional, cell-based

Row | SMILES | EC50
39 | O=C(CSc1n[nH]c(-c2ccccn2)n1)Nc1cccc(Cl)c1 | 9 µM (active)

Target: FAD-linked sulfhydryl oxidase ALR (Homo sapiens, UniProt P55789)
Sequence (P55789 whole entry): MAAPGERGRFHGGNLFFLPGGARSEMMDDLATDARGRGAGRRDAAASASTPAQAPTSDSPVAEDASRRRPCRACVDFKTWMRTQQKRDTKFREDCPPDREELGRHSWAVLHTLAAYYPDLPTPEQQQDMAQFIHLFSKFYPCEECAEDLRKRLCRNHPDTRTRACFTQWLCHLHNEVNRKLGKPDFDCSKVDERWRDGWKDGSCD
Test: ALR-catalysed DTT oxidation blockers – biochemical, H2O2 detection, luminescence, cherry-pick, dose response (AID 493248)

Row | SMILES | AC50
40 | Cc1ccc(NC(=O)N/C=C/c2ccco2)cc1C | 1.7 µM (active)
